In US20250034135A1, “ANTI-APOPTOTIC PROTEIN BCL-2 INHIBITOR, PHARMACEUTICAL COMPOSITION AND USES THEREOF” (HANGZHOU HEALZEN THERAPEUTICS CO., LTD., priority 2021, published 2025):

The molecules below were run against BCL2 (Homo sapiens (Human), UniProt P10415) (assay: Molecular level activity test of anti-apoptotic protein BCL2 (HTRF, binding to Bim peptide)). Details: HTRF, binding of BCL2 to Bim peptide; read-out: BCL2 nM (inhibitory activity, IC50).
Outline: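 Competition binding format: recombinant His-BCL2 and a biotin-Bim peptide are incubated with compound for 1 h, followed by 4 h at room temperature with HTRF detection antibodies.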

Chain of BCL2 (P10415 whole entry): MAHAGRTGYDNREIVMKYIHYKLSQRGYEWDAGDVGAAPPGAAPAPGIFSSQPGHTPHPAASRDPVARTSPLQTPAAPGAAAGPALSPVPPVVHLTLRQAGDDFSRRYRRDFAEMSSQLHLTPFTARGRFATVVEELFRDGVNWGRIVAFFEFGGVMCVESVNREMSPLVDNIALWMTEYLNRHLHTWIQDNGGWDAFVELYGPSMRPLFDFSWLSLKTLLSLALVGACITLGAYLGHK

SMILES	IC50
COc1ccc(CN2CCN(C3CC4(CCN(c5cc(Oc6cnc7[nH]ccc7c6)c(C(=O)NS(=O)(=O)c6cc([N+](=O)[O-])c(NCC7CCOCC7)c7ocnc67)cc5F)CC4)C3)[C@H](c3ccccc3C(C)C)C2)cc1 [compound 121, (R)-2-((1H-pyrrolo[2,3-b]pyrid-5-yl)oxy)-5-fluoro-4-(2-(2-(2-isopropylphenyl)-4-(4-methoxybenzyl)piperazin-1-yl)-7-azaspiro[3.5]non-7-yl)-N-((6-nitro-7-(((tetrahydro-2H-pyran-4-yl)methyl)amino)benzo[d]oxazol-4-yl)sulfonyl)benzamide]	< 10 nM
COc1ccc(CN2CCN(C3CC4(CCN(c5cc(Oc6cnc7[nH]ccc7c6)c(C(=O)NS(=O)(=O)c6cc([N+](=O)[O-])c(NC[C@H]7COCCO7)c7ocnc67)cc5F)CC4)C3)[C@H](c3ccccc3C(C)C)C2)cc1 [compound 124]	< 10 nM
CC(C)c1ccccc1[C@@H]1CCCN1C1CC2(CCN(c3cc(Oc4cnc5[nH]ccc5c4)c(C(=O)NS(=O)(=O)c4cc([N+](=O)[O-])c(NCC5(F)CCN(CC(F)(F)F)CC5)c5[nH]cnc45)cc3F)CC2)C1 [compound 032, (S)-2-((1H-pyrrolo[2,3-b]pyrid-5-yl)oxy)-5-fluoro-N-((7-(((4-fluoro-1-(2,2,2-trifluoroethyl)piperid-4-yl)methyl)amino)-6-nitro-1H-benzo[d]imidazol-4-yl)sulfonyl)-4-(2-(2-(2-isopropylphenyl)pyrrolidin-1-yl)-7-azaspiro[3.5]non-7-yl)benzamide]	< 10 nM
CC(C)c1ccccc1[C@@H]1CCCN1C1CC2(CCN(c3ccc(C(=O)NS(=O)(=O)c4cc([N+](=O)[O-])c(NCC5(F)CCOCC5)c5c4OCO5)c(Oc4cnc5[nH]ccc5c4)c3)CC2)C1 [compound 159, (S)-2-((1H-pyrrolo[2,3-b]pyrid-5-yl)oxy)-N-((7-(((4-fluorotetrahydro-2H-pyran-4-yl)methyl)amino)-6-nitrobenzo[d][1,3]dioxocyclopent-4-yl)sulfonyl)-4-(2-(2-(2-isopropylphenyl)pyrrolidin-1-yl)-7-azaspiro[3.5]non-7-yl)benzamide]	< 10 nM
COc1ccc(CN2CCN(C3CC4(CCN(c5cc(Oc6cnc7[nH]ccc7c6)c(C(=O)NS(=O)(=O)c6cc([N+](=O)[O-])c(NC[C@H]7CC[C@](C)(O)CC7)c7[nH]cnc67)cc5F)CC4)C3)C(c3ccccc3C(C)C)C2)cc1 (stereo partly shown) [compound 071, 2-((1H-pyrrolo[2,3-b]pyrid-5-yl)oxy)-5-fluoro-N-((7-((((1r,4r)-4-hydroxy-4-methylcyclohexyl)methyl)amino)-6-nitro-1H-benzo[d]imidazol-4-yl)sulfonyl)-4-(2-(2-(2-isopropylphenyl)-4-(4-methoxybenzyl)piperazin-1-yl)-7-azaspiro[3.5]non-7-yl)benzamide]	< 10 nM
COc1cc(CN2CCN(C3CC4(CCN(c5cc(Oc6cnc7[nH]ccc7c6)c(C(=O)NS(=O)(=O)c6ccc(NC[C@H]7CC[C@](C)(O)CC7)c([N+](=O)[O-])c6)cc5F)CC4)C3)[C@H](c3ccccc3C(C)C)C2)cc2cc(C)oc12 [compound 225, 2-((1H-pyrrolo[2,3-b]pyrid-5-yl)oxy)-5-fluoro-N-((4-((((1r, 4r)-4-hydroxy-4-methylcyclohexyl)methyl)amino)-3-nitrophenyl)sulfonyl)-4-(2-((R)-2-(2-isopropylphenyl)-4-((7-methoxy-2-methylbenzofuran-5-yl)methyl)piperazin-1-yl)-7-azaspiro[3.5]non-7-yl)benzamide]	< 10 nM
CC(C)c1ccccc1[C@@H]1CCCN1C1CC2(CCN(c3cc(Oc4cnc5[nH]ccc5c4)c(C(=O)NS(=O)(=O)c4cc([N+](=O)[O-])c(NCC5(F)CCN(C6CCOCC6)CC5)c5[nH]cnc45)cc3F)CC2)C1 [compound 024, (S)-2-((1H-pyrrolo[2,3-b]pyrid-5-yl)oxy)-5-fluoro-N-((7-(((4-fluoro-1-(tetrahydro-2H-pyran-4-yl)piperid-4-yl)methyl)amino)-6-nitro-1H-benzo[d]imidazol-4-yl)sulfonyl)-4-(2-(2-(2-isopropylphenyl)pyrrolidin-1-yl)-7-azaspiro[3.5]non-7-yl)benzamide]	< 10 nM
CC(C)c1ccccc1[C@@H]1CCCN1C1CC2(CCN(c3ccc(C(=O)NS(=O)(=O)c4cc([N+](=O)[O-])c(NC[C@H]5CC[C@](C)(O)CC5)c5[nH]cnc45)c(N4CCOc5nc6[nH]ccc6cc54)c3)CC2)C1 [compound 079, 2-(2,3-dihydropyrrolo[3′,2′:5,6]pyridino[2,3-b][1,4]oxazin-1 (6H)-yl)-N-((7-((((1r,4r)-4-hydroxy-4-methylcyclohexyl)methyl)amino)-6-nitro-1H-benzo[d]imidazol-4-yl)sulfonyl)-4-(2-((S)-2-(2-isopropylphenyl)pyrrolidin-1-yl)-7-azaspiro[3.5]non-7-yl)benzamide]	< 10 nM
CC(C)c1ccccc1[C@@H]1CCCN1C1CC2(CCN(c3cc(Oc4cnc5[nH]ccc5c4)c(C(=O)NS(=O)(=O)c4cc([N+](=O)[O-])c(NC[C@H]5C[C@@](C)(O)C5)c5[nH]cnc45)cn3)CC2)C1 [compound 017, 4-((1H-pyrrolo[2,3-b]pyrid-5-yl)oxy)-N-((7-((((1S,3S)-3-hydroxy-3-methylcyclobutyl)methyl)amino)-6-nitro-1H-benzo[d]imidazol-4-yl)sulfonyl)-6-(2-((S)-2-(2-isopropylphenyl)pyrrolidin-1-yl)-7-azaspiro[3.5]non-7-yl) nicotinamide]	< 10 nM
COc1cc(CN2CCN(C3CC4(CCN(c5ccc(C(=O)NS(=O)(=O)c6cc([N+](=O)[O-])c(NC[C@H]7CC[C@](C)(O)CC7)c7c6OCO7)c(Oc6cnc7[nH]ccc7c6)c5)CC4)C3)[C@H](c3ccccc3C(C)C)C2)cc2cc(C)oc12 [compound 180]	< 10 nM
COc1ccc(CN2CCN(C3CC4(CCN(c5cc(Oc6cnc7[nH]ccc7c6)c(C(=O)NS(=O)(=O)c6cc([N+](=O)[O-])c(NC[C@H]7COCCO7)c7scnc67)cc5F)CC4)C3)[C@H](c3ccccc3C(C)C)C2)cc1 [compound 125]	< 10 nM
CC(C)c1ccccc1[C@@H]1CCCN1C1CC2(CCN(c3cc(Oc4cnc5[nH]ccc5c4)c(C(=O)NS(=O)(=O)c4cc([N+](=O)[O-])c(NCC5(F)CCN(C(C)C)CC5)c5[nH]cnc45)cc3F)CC2)C1 [compound 022, (S)-2-((1H-pyrrolo[2,3-b]pyrid-5-yl)oxy)-5-fluoro-N-((7-(((4-fluoro-1-isopropylpiperid-4-yl)methyl)amino)-6-nitro-1H-benzo[d]imidazol-4-yl)sulfonyl)-4-(2-(2-(2-isopropylphenyl)pyrrolidin-1-yl)-7-azaspiro[3.5]non-7-yl)benzamide]	< 10 nM
COc1ccc(CN2CCN(C3CC4(CCN(c5ccc(C(=O)NS(=O)(=O)c6cc([N+](=O)[O-])c(NC[C@H]7CC[C@](C)(O)CC7)c7c6OCCO7)c(Oc6cnc7[nH]ccc7c6)c5)CC4)C3)[C@H](c3ccccc3C(C)C)C2)cc1 [compound 182, 2-((1H-pyrrolo[2,3-b]pyrid-5-yl)oxy)-N-((8-((((1r, 4r)-4-hydroxy-4-methylcyclohexyl)methyl)amino)-7-nitro-2,3-dihydrobenzo[b][1,4]dioxan-5-yl)sulfonyl)-4-(2-((R)-2-(2-isopropylphenyl)-4-(4-methoxybenzyl)piperazin-1-yl)-7-azaspiro[3.5]non-7-yl)benzamide]	< 10 nM
